Twelve compounds from US10336697B2, “Spiro[cyclobutane-1,3′-indolin]-2′-one derivatives as bromodomain inhibitors” (Orion Corporation, priority 2015, dated 2019) can be followed below.

The target in this assay is Bet BRD4 full length bromo-domain protein (Homo sapiens, UniProt O60885). Briefly: Bet bromodomain TR-FRET assay (displacement of acetyl histone peptide). In kind it is binding. The following applies: Bet BRD4 full length bromodomain protein, 300 nM acetyl histone peptide substrate, read-out: IC50. (TR-FRET usually uses a lanthanide donor and a delayed reading to cut background.)

Broadly, the IC50 is the concentration needed to halve the response being measured.

Consider `CN1CCC(Oc2cc(NS(=O)(=O)c3ccc(Cl)cc3F)cc3c2NC(=O)C32CCC2)CC1` [Compound 130, 4-Chloro-2-fluoro-N-(7′-((1-methylpiperidin-4-yl)oxy)-2′-oxospiro[cyclobutane-1,3′-indolin]-5′-yl)benzenesulfonamide], for which the IC50 is under 600 nM. Next, `O=C(Nc1cc(NS(=O)(=O)c2ccc(F)cc2F)cc2c1NC(=O)C21CCC1)C1CCOCC1` [Compound 46, N-(5′-(2,4-Difluorophenylsulfonamido)-2′-oxospiro[cyclobutane-1,3′-indolin]-7′-yl)tetrahydro-2H-pyran-4-carboxamide]: over 1000 nM; `O=C(NC1CCCNC1)c1cc(NS(=O)(=O)c2ccc(F)cc2F)cc2c1NC(=O)C21CCC1` (stereo not drawn) [Compound 65, 5′-(2,4-Difluorophenylsulfonamido)-2′-oxo-N-(piperidin-3-yl)spiro[cyclobutane-1,3′-indoline]-7′-carboxamide]: under 600 nM; `COc1ccccc1S(=O)(=O)Nc1cc(C(=O)NC2CCN(C)CC2)c2c(c1)C1(CCC1)C(=O)N2` [Compound 60, 5′-(2-Methoxyphenylsulfonamido)-N-(1-methylpiperidin-4-yl)-2′-oxospiro[cyclobutane-1,3′-indoline]-7′-carboxamide]: under 600 nM. Next, `O=C1Nc2c(NCc3cccnc3)cc(NS(=O)(=O)c3ccc(F)cc3F)cc2C12CCC2` [Compound 27, 2,4-difluoro-N-(2′-oxo-7′-((pyridin-3-ylmethyl)amino)spiro[cyclobutane-1,3′-indolin]-5′-yl)benzenesulfonamide]: under 600 nM; `CC(C)(C)OC(=O)N1CCC(Nc2cc(NS(=O)(=O)c3ccc(F)cc3F)cc3c2NC(=O)C32CCC2)C(F)C1` (stereo not drawn) [Compound 37, tert-Butyl 4-((5′-(2,4-difluorophenylsulfonamido)-2′-oxospiro[cyclobutane-1,3′-indolin]-7′-yl)amino)-3-fluoro piperidine-1-carboxylate]: over 1000 nM; `COc1ccccc1S(=O)(=O)Nc1cc(OCC2CCN(C)CC2)c2c(c1)C1(CCC1)C(=O)N2` [Compound 146, 2-Methoxy-N-(7′-((1-methylpiperidin-4-yl)methoxy)-2′-oxospiro[cyclobutane-1,3′-indolin]-5′-yl)benzenesulfonamide]: under 600 nM. Next, `O=C1Nc2c(Oc3cc[nH]c(=O)c3)cc(NS(=O)(=O)c3ccc(Cl)cc3F)cc2C12CCC2` [Compound-212, 4-Chloro-2-fluoro-N-(2′-oxo-7′-((2-oxo-1,2-dihydropyridin-4-yl)oxy)spiro[cyclobutane-1,3′-indolin]-5′-yl)benzenesulfonamide]: under 600 nM. In the case of `O=C(Nc1ccccn1)c1cc(NS(=O)(=O)c2ccc(F)cc2F)cc2c1NC(=O)C21CCC1` [Compound 49, 5′-(2,4-Difluorophenylsulfonamido)-2′-oxo-N-(pyridin-2-yl)spiro[cyclobutane-1,3′-indoline]-7′-carboxamide], the IC50 was 600 to 1000 nM. The same measure for `CN1CCCC(NC(=O)c2cc(NS(=O)(=O)c3ccc(F)cc3F)cc3c2NC(=O)C32CCC2)C1` (stereo not drawn) [Compound 58, 5′-(2,4-Difluorophenylsulfonamido)-N-(1-methylpiperidin-3-yl)-2′-oxospiro[cyclobutane-1,3′-indoline]-7′-carboxamide]: under 600 nM. On to `O=C(c1cc(NS(=O)(=O)c2ccc(F)cc2N2CCOCC2)cc2c1NC(=O)C21CCC1)N1CCOCC1` [Compound 61, 4-Fluoro-N-(7′-(morpholine-4-carbonyl)-2′-oxospiro[cyclobutane-1,3′-indolin]-5′-yl)-2-morpholinobenzenesulfonamide], for which the IC50 is over 1000 nM. Next, `COc1ccccc1S(=O)(=O)Nc1cc(NC2CCN(C)CC2)c2c(c1)C1(CCC1)C(=O)N2` [Compound 39, 2-Methoxy-N-(7′-((1-methylpiperidin-4-yl)amino)-2′-oxospiro[cyclobutane-1,3′-indolin]-5′-yl)benzenesulfonamide]: under 600 nM.
